These results are taken from patent US7094869B2, “Low molecular weight peptidomimetic growth hormone secretagogues” (Genentech, Inc., priority 1994, dated 2006).

Read-outs that look alike come from different tables or passages of the source. Non-standard residues stand in square brackets, D forms with d. Residues, ends and D or L forms follow the SMILES beside them. *: point of attachment. dNMe2Nal = CN[C@H](Cc1ccc2ccccc2c1)C(=O)O; 2Nal = N[C@@H](Cc1ccc2ccccc2c1)C(=O)O; d2Nal = N[C@H](Cc1ccc2ccccc2c1)C(=O)O; Acetyl(4-pyridyl) = O=C(Cc1ccncc1)*; NMeF = CN[C@@H](Cc1ccccc1)C(=O)O; dPhg = N[C@@H](C(=O)O)c1ccccc1; NHPhenethyl = c1ccc(CCN*)cc1; dNle = CCCC[C@@H](N)C(=O)O; dOrn = NCCC[C@@H](N)C(=O)O; Ac6c = NC1(C(=O)O)CCCCC1; Inp = O=C(O)C1CCNCC1; Ava = NCCCCC(=O)O

This assay deals with rat pituitary cells (Rattus norvegicus, UniProt O08725). How it is done: Pituitaries from ten rats were removed, the posterior pituitary discarded and the anterior pituitary placed in Hanks' Balanced Salt Solution (HBSS: without calcium chloride, w/o magnesium chloride, w/o magnesium sulfate; Gibco) containing 20 mM HEPES (Gibco) and 100 U/ml penicillin streptomycin (PS: JRH Biosciences). Under sterile conditions, pituitaries were rinsed twice then minced into small fragments with a razor blade. […] After the incubation, fragments were triturated to yield small clumps and single cells. The cells were centrifuged 1000× g for 5 min, resuspended, counted and plated at a final cell concentration of 100,000 cells/ml. Incubation media was DME low glucose media w/NaHCO3 (Gibco) containing 20 mM hepes, 100 U/ml PS and 10% FBS (Hyclone A-111-L). Cells were plated at 0.5 ml per well in 48 well plates (Falcon) and incubated at 37° C. in 5% C02 for three days. For challenges to determine release of other pituitary hormones cells were plated at 200,000 cells per ml with 2 ml per well of a Swell plate (Corning). Challenge: A (inip)bbFK-NH2 stock (or other GHRP) concentration of 1 mM was made in DMSO and diluted with warmed media approximately 30 min prior to use. The highest concentration of DMSO in media was 0.1%. Stock solutions (1 mM) of rat GHRH, somatostatin (Sigma) and GHRP antagonist HwkWfK were made fresh in media and diluted appropriately. The media used in all challenges and washing steps was DME low glucose with 20 mM Hepes, 100 U/ml PS, 10% FBS. Media was warmed to 37° C. and gassed by placing it into the incubator prior to challenge. On day three, the media was discarded and fresh media (approximately 1 ml) added for the first of three washes. After the last wash, the plate was placed back in the incubator for a 15 min pre-incubation. Then cells were washed 2× (with warmed and gassed media) and fresh 0.5 ml media were added for the second 15 min. pre-incubation. After the second pre-incubation cells were washed 2× as above and 0.5 ml of control and test solutions were added for a final 15 min incubation. After this incubation, the media were removed for subsequent GH ELISA. GH ELISA: A two-site ELISA was used to determine rat GH concentration in the media. […] After blocking and washing, standard (rat GH reference preparation: Parlow) and challenge media is diluted 1:20 prior to GH assay were added for a 1 hr room temperature incubation. STATISTICS: The mean for each group was determined and analyzed by one-way analysis of variance with a post-hoc Student-Newman-Keuls. Significance is defined as P<0.05. The EC50 was calculated using a 4-parameter curve-fit program (Kaleidagraph). Three to four independent EC50s were used to derive the mean and SEM. RIA of pituitary hormones: LH, FSH, TSH, and Prolactin were determined with commercially available kits from Amersham, and ACTH levels were determined by a RIA kit from ICN. CALCIUM FLUX EXPERIMENT: Pituitary cells were plated on fibronectin (Collaborative Research) coated two-chambered slide wells (Nunc). After four days in monolayer culture cells were rinsed three times with HBSS (Gibco) in 1% BSA and 15 mM HEPES and then incubated for 30 min at 37° C. with 5 μM Indo-1 AM (Molecular Probes, Eugene) in HBSS also containing 1% pluronic F127 (Molecular Probes). The cells were rinsed once and fresh media added for RT incubation. […] C^++ flux was imaged with a Meridian ACAS 570 using stage scanning at 21 second intervals.
Chain of rat pituitary cells (O08725 whole entry, the tested form may be a part): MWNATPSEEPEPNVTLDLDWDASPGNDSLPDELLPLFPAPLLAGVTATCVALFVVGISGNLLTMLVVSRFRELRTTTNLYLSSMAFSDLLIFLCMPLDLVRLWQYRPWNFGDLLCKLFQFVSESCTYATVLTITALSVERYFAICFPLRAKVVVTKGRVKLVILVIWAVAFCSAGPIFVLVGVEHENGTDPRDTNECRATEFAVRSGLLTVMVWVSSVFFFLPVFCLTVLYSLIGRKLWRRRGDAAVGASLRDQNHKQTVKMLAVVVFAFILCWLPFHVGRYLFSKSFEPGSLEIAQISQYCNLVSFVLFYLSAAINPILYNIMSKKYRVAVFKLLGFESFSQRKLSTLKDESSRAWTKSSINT

Where [1] appears, read: read-out: PIT Cell EC50, Table IV, formula III compounds, GH release, 15 min incubation.
The mark [2] stands for this setting: read-out: PIT Cell EC50, Table III, formula IV compounds, GH release, 15 min incubation.
Setting [3] is: read-out: PIT Cell EC50, Table V, formula II compounds, GH release, 15 min incubation.

What is called EC50 is the concentration at which the effect is half-maximal. As to `CCCC[C@@H](NC(=O)C1CCNCC1)C(=O)N[C@H](Cc1ccc2ccccc2c1)C(=O)N[C@@H](Cc1ccccc1)C(N)=O` [(inip) nl b F amide] (H-[Inp][dNle][d2Nal]F-NH2), under setting [1], the 50% effective concentration (EC50) is 101 nM.

For `CN(C)C(=O)C(Cc1ccccc1)NC(=O)[C@@H](Cc1ccc2ccccc2c1)NC(=O)[C@@H](Cc1ccc2ccccc2c1)NC(=O)C1CCNCC1` (single isomer, unassigned) [(inip) b b f dam], under setting [2], the EC50 amounted to 12 nM.

For the compound `O=C(N[C@H](Cc1ccc2ccccc2c1)C(=O)N[C@H](CO)Cc1ccc2ccccc2c1)C1CCNCC1` [(inip) b Bol], under setting [3], the EC50 is 100 nM.

On to `NC(=O)[C@H](Cc1ccccc1)NC(=O)[C@@H](Cc1c[nH]c2ccccc12)NC(=O)[C@@H](Cc1c[nH]c2ccccc12)NC(=O)[C@@H](N)Cc1ccc(O)cc1` [Y w w F amide, reference compound] (H-Y[dW][dW]F-NH2), for which the EC50 stood at 1000 nM.

In the case of `NCCCCC(=O)N[C@H](Cc1ccccc1)C(=O)N[C@@H](Cc1ccc2ccccc2c1)C(=O)N[C@@H](Cc1ccc2ccccc2c1)C(=O)N[C@@H](CCCCN)C(N)=O` [(Ava) f B B K amide, (5-Aminovaleryl)-DPhe-βNal-βNal-Lys-amide] (H-[Ava][dF][2Nal][2Nal]K-NH2), the EC50 (read-out: PIT Cell EC50, Table VI, retroinverso compounds of formula V, GH release, 15 min incubation) came out at 36 nM.

Consider `O=C(N[C@H](Cc1ccc2ccccc2c1)C(=O)N[C@H](Cc1ccc2ccccc2c1)C(=O)O)C1CCNCC1` [(inip) b b acid] (H-[Inp]-[d2Nal]-[d2Nal]-OH), for which the half-maximal effective concentration (EC50) under setting [3] came to 82 nM.

With `CN(C(=O)[C@@H](Cc1c[nH]c2ccccc12)NC(=O)[C@@H](Cc1c[nH]c2ccccc12)NC(=O)[C@@H](N)Cc1c[nH]cn1)[C@@H](Cc1ccccc1)C(=O)N[C@@H](CCCCN)C(N)=O` [H w w nmF K amide] (H-H[dW][dW][NMeF]K-NH2), the EC50 under setting [2] stood at 37.3 nM.

With `CN(C(=O)[C@@H](Cc1ccc2ccccc2c1)NC(=O)C1CCN(C(=O)OC(C)(C)C)CC1)[C@@H](CN)Cc1ccc2ccccc2c1` [Boc (inip) b mbm], under setting [3], the EC50 is 13 nM.

As to `NCCCCC(=O)N[C@H](Cc1ccc2ccccc2c1)C(=O)N[C@@H](Cc1ccccc1)C(=O)N[C@@H](CCCCN)C(N)=O` [(Ava) b F K amide] (H-[Ava][d2Nal]FK-NH2), the EC50 under setting [1] was greater than 300 nM.

Consider `NC(=O)[C@H](Cc1ccccc1)NC(=O)C1(NC(=O)[C@@H](Cc2ccc3ccccc3c2)NC(=O)C2CCNCC2)CCCCC1` [(inip) b Abx F amide] (H-[Inp][d2Nal][Ac6c]F-NH2), for which the EC50 under setting [1] is greater than 100 nM.

Turning to `CN(C(=O)C1CCNCC1)[C@H](Cc1ccc2ccccc2c1)C(=O)N(C)[C@H](Cc1ccc2ccccc2c1)C(=O)N[C@@H](Cc1ccccc1)C(=O)N[C@@H](CCCCN)C(N)=O` [(inip) nmb nmb F K amide] (H-[Inp][dNMe2Nal][dNMe2Nal]FK-NH2), the EC50 under setting [2] came out at 1.4 nM.

Regarding `NCCCCC(=O)N[C@H](Cc1ccc2ccccc2c1)C(=O)N[C@H](Cc1ccc2ccccc2c1)C(=O)NCCc1ccccc1` [(Ava) b b fem] (H-[Ava]-[d2Nal]-[d2Nal]-NHPhenethyl), the EC50 under setting [1] was greater than 200 nM.

As for `NCCCC[C@H](NC(=O)[C@H](Cc1ccccc1)NC(=O)[C@@H](Cc1ccc2ccccc2c1)NC(=O)[C@@H](Cc1ccc2ccccc2c1)NC(=O)Cc1ccncc1)C(N)=O` [(pac) b b F K amide] ({Acetyl(4-pyridyl)}-[d2Nal][d2Nal]FK-NH2), under setting [2], the EC50 turned out to be 100 nM.

`NCCCCC(=O)N[C@H](Cc1ccc2ccccc2c1)C(=O)N[C@H](Cc1ccc2ccccc2c1)C(=O)N[C@@H](C(=O)N[C@@H](CCCCN)C(N)=O)c1ccccc1` [(Ava) b b (pG) K amide] (H-[Ava][d2Nal][d2Nal][dPhg]K-NH2): the EC50 under setting [2] was greater than 100 nM.

As for `NCCC[C@@H](NC(=O)[C@@H](Cc1ccc2ccccc2c1)NC(=O)[C@@H](Cc1ccc2ccccc2c1)NC(=O)C1CCNCC1)C(N)=O` [(inip) b b o amide] (H-[Inp][d2Nal][d2Nal][dOrn]-NH2), the EC50 under setting [1] is 10 nM.

For `CN(C(=O)[C@@H](Cc1ccc2ccccc2c1)NC(=O)C1CCNCC1)[C@@H](CN=[N+]=[N-])Cc1ccc2ccccc2c1` [(inip) b miz], the EC50 under setting [3] turned out to be 12 nM.
